Laboratory results from PMC6150693 (Journal of the American Chemical Society, 2017).

Target: T1, SBD2 (Lactococcus lactis, UniProt Q9CES5)
T1 sequence (Q9CES5 253-484 limits assumed): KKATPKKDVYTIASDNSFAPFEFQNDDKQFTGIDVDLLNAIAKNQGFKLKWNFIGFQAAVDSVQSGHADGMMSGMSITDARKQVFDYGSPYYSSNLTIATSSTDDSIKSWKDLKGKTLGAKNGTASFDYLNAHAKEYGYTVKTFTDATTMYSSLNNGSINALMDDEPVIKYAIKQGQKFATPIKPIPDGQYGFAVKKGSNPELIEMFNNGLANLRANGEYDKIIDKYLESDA
Test: single-molecule ClyA nanopore current, relative closed population
Format: binding

Kd: 830 ± 100 nM
Compound: NC(=O)CC[C@H](N)C(=O)O [glutamine]
